“Also recorded” adds a separate entry of the source.
Tests used:
[1] = biological target: T1, IL1R1 molecule, soluble portion (Homo sapiens, UniProt P14778); assay: Trypsin sites blocked by small organic molecules on folded protein, mass spectrometry; format: biochemical
T1 construct: Linear representation of IL1R1 molecule, soluble portion; purchased Adipogen
T1 sequence (P14778 21-336): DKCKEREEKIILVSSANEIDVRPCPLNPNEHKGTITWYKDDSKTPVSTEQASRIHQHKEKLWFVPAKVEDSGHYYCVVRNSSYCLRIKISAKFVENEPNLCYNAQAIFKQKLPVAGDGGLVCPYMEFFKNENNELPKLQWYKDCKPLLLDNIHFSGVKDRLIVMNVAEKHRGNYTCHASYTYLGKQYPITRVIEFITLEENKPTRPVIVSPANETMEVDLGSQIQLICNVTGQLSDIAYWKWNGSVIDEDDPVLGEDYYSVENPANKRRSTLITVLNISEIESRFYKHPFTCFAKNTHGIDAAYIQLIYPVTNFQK
Excerpt: The binding of the small organic molecules is localized to multiple sites restricted to the surface of the protein, and excluded from internal domains of protein-protein interactions […]. […] Thus these molecules can be employed to reveal a) the inner contact domains of a single folded protein or b) the contact domains of two or more interacting proteins.
To identify functional protein-protein interaction domains, three equimolar concentrations of Interleukin ligand, its cognate receptor, and its accessory proteins were selected as a proof of concept protein complex. Interleukin 1β (IL1β, Gibco, 65 pmoles in 50 μl PBS), Interleukin 1 receptor type I (IL1RI, Adipogen, 65 pmoles in 50 μl PBS), and Interleukin 1 receptor accessory protein (IL1RAcP, Novoprotein, 65 pmoles in 50 μl PBS), were allowed to interact for one hour at room temperature under rotation. […]
As a control to identify solvent accessible surface areas, protein solutions were prepared in parallel at the same concentrations without adding paint molecules. […] Equal quantities of unbound, Interleukin 1β, IL1RI, or IL1RAcP were mixed individually with each of the four molecular paints (3 proteins×4 paints, n=12) in a 1:10 molar ratio (protein:molecular paint). […]
The solutions were immediately passed through a size sieving Sephadex column (PD MiniTrap G 25, GE Healthcare) and the flow through was collected, denatured with urea (final concentration 2M), reduced with 1 M dithiothreitol (Sigma, 15 minutes at 37° C.), alkylated with 0.5 M iodoacetamide (Sigma, 15 minutes, room temperature in the dark), and digested with trypsin (Promega) at 1:10 w/w protease/protein ratio for 2 hours at 37° C. Tryptic peptides were purified by Zip-Tip (Millipore) following manufacturer's instructions, and analyzed by reversed-phase liquid chromatography nanospray tandem mass spectrometry (LC-MS/MS) using an LTQ-Orbitrap mass spectrometer (ThermoFisher).

[2] = tested on: SAPK/JNK signaling downstream from IL1RI; assay: SAPK/JNK signaling in IL1β stimulated NCI/ADR-RES cells, western blotting; format: cell-based; conditions: IL1β 10 ng/mL; Arg286 peptide 3.3, 16.7 and 33 μM; scrambled peptide 33 μM
Experimental: NCI/ADR-RES cells (Division of Cancer Treatment and Diagnosis, National Cancer Institute) were cultured in Dulbecco's modified Eagle's medium (Gibco) with 10% fetal bovine serum (ATCC), and 2 mM L-glutamine (ATCC) at 37° C., 5% CO2, in a humidified environment. NCI/ADR-RES cells (2×10^6 cells/well) were plated into 6-well tissue culture dishes. The following day, cells were pre-treated for 30 minutes with soluble IL1RAcP (1 μg/mL) lacking the trans-membrane domain, Arg286 peptide ([…], 3.3, 16.7 and 33 μM) (SEQ ID NO:6) and a scrambled peptide obtained by randomly shuffling Arg286 sequence ([…], 33 μM) (SEQ ID NO:7). Cells were washed with Dulbecco's modified Eagle's medium with 10% fetal bovine serum, and 2 mM glutamine and were stimulated with IL1β at 10 ng/ml for 30 min. Following incubation, cells were washed in ice-cold PBS, incubated with 100 μl of cell lysis buffer (10% Bond Breaker TCEP solution (Thermo Scientific), 45% T-PER tissue protein extraction reagent (Thermo Scientific) and 45% Novex Tris Glycine SDS sample buffer 2× (Invitrogen)), scraped, transferred to Eppendorf tubes, and heated at 100° C. for 10 minutes. Cell lysates were analyzed by western blotting.
Proteins were separated by 1-D gel electrophoresis in 4-20% Tris-Glycine gel in the presence of Tris-Glycine SDS running buffer with the following run conditions: 125 V, 90 minutes. […]

[3] = biological target: T2, IL1β-IL1RI-IL1RAcP complex (Homo sapiens, UniProt P01584+P14778); assay: Pull-down of IL1β within the receptor complex by His-tagged IL1RAcP (immunoprecipitation); format: binding; conditions: Arg286 peptide 6.7, 3.3, 1.7, 0.8 and 0.4 μM
T2 construct: purchased Gibco (IL1β); Adipogen (IL1RI); Novoprotein (IL1RAcP)
Experimental: IL1β (0.44 μg/mL), IL1RI (2 μg/mL) and 6×His-tagged IL1RAcP (0.72 μg/mL) were incubated with Arg286 peptide (6.7, 3.3, 1.7, 0.8 and 0.4 μM) in 50 μl of PBS for one hour at room temperature under rotation. In parallel, […], IL1RI and 6×His-tagged IL1RAcP were allowed to interact without Arg286 peptide as a positive control. IL1β, and 6×His-tagged IL1RAcP were allowed to interact in absence of IL1RI as a negative control. After 1 hour, protein mixtures were incubated with magnetic beads decorated with anti-6His mouse monoclonal antibody obtained as follows. BcMag Protein G Magnetic Beads (50 μl, Bioclone) were washed 3 times with washing buffer (57.7 mM Na2HPO4, 42.3 mM NaH2PO4, pH 7.0) and incubated with anti-6×His mouse monoclonal antibody (1 μg, Abcam) for 30 minutes under rotation. Magnetic beads were separated from the supernatant with neodymium magnets, washed three times with washing buffer (57.7 mM Na2HPO4, 42.3 mM NaH2PO4, pH 7.0) and incubated with protein mixtures for one hour at room temperature under rotation. Magnetic beads were separated from the supernatant with neodymium magnets and washed three times with washing buffer (57.7 mM Na2HPO4, 42.3 mM NaH2PO4, pH 7.0). Immuno-precipitated proteins were eluted with 20 μl of 4× sample buffer (10 minutes, 70° C.). Immuno-precipitated proteins were analyzed by western blotting. […]

T2 sequence (P01584 117-269, one chain of several): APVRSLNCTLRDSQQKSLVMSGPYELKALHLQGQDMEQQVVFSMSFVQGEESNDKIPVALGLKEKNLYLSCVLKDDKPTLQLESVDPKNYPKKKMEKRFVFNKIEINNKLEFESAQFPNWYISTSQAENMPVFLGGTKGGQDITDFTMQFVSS

Compound | location of blocked trypsin sites on IL1R1 [1] | inhibition of SAPK/JNK signaling downstream from IL1RI [2] | inhibition of ligand pull-down / 3-protein complex formation [3]
CCN1/C(=C/C=C/c2sc3ccccc3[n+]2CC)Sc2ccccc21 [DECI, 3,3′-Diethylthiacarbocyanine iodide] | lay on the surface of the folded molecule |  | 
CN=C1C=CC(=C(c2ccc(N(C)C)cc2)c2ccc(N(C)C)cc2)C=C1.Cl [MV, N-(4-{bis[4-(dimethylamino)phenyl]methylene}-2,5-cyclohexadien-1-ylidene)methanaminium chloride] | lay on the surface of the folded native molecule |  | 
TINESISHSRTEDETRTQILS [Arg286 peptide] |  | completely blocked IL1 ligand-stimulated signaling, in a dose dependent manner; also recorded: inhibited SAPK/JNK signaling downstream from IL1RI as effectively as IL1RAcP | completely blocked IL1RAcP 3-way binding to the receptor ligand complex; also recorded: inhibition of ligand pull-down
HLRNISRISSITDTSETETEQ [scrambled peptide] |  | does not inhibit the signaling downstream from IL1RI | 
O=S(=O)(O)c1cccc2cccc(Nc3ccccc3)c12 [ANSA, 8-Anilino-1-naphthalenesulfonic acid] | lay on the surface of the molecule |  | 

From patent US10126304B2, “Binding domain mapping” (George Mason Research Foundation, Inc., priority 2013, dated 2018)
